Measured values published in patent publication US5817669A, “Compounds, processes for the preparation thereof and anti-tumor agents” (Dainippon Pharmaceutical Co., Ltd., priority 1994, dated 1998).
Counter-ions that a name gives are not always drawn. Like-named read-outs stand apart in the source and are kept apart here. One block for each compound: values may come before it.

How the values were obtained:
Solubility = details: for solubility relative to that of Compound 1-1 and 3: relative to Compound 1-1 and 3 (Z is hydrogen)
[1] = test system: murine P388 lymphocytic leukemia cells; test: Increases in life span of mice implanted with murine P388 lymphocytic leukemia cells; type: in vivo, SLC: BDF1 mice; details: Mus musculus, P388, ip, 720 h, ip
[2] = test system: MKN45 human stomach cancer; test: In vitro anti-tumor activity against MKN45 human stomach cancer (MTT); type: cell-based; details: MKN-45, MKN45, 72 h, MTT, read-out: IC50
In short: (§1)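 Read-out is MTT formazan, dissolved in dimethyl sulfoxide after a 4-hour MTT (5 mg/ml) incubation. Before that, seeded cells (500 to 2,000 per well) grew 20 hours at 37° C and then received compound for 72 hours.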

HMV2 human melanoma = test: In vitro anti-tumor activity against HMV-2 human melanoma (MTT); type: cell-based; details: HMV-2, 72 h, MTT, read-out: IC50
In short: as §1

[3] = test system: colon 26 murine tumor cells; test: Tumor growth inhibition effect on colon 26 murine tumor cells implanted mice; type: in vivo, SLC: CDF1 mice; details: Mus musculus, Colon 26, 504 h; ip, 3.13 mg/kg once a day, days 1-9; day 21 or 22; read-out: Tumor growth inhibition rate IR (%)
In short: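 CDF1 female mice (7–9 weeks, 7 per group) implanted intracutaneously in the abdomen with 2% brei of colon 26 cells. Compound given ip once daily from day 1 to day 9. Tumor weight estimated from diameters on day 21 or 22; IR % = [1 − (treated MTW/control MTW)] × 100.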

C33A human cervix cancer = test: In vitro anti-tumor activity against C-33A human cervix cancer (MTT); type: cell-based; details: C-33A, 72 h, MTT, read-out: IC50
In short: as §1

A427 human lung cancer = test: In vitro anti-tumor activity against A-427 human lung cancer (MTT); type: cell-based; details: A-427, 72 h, MTT, read-out: IC50
In short: as §1

[4] = test system: WiDr human colorectal cancer; test: In vitro anti-tumor activity against WiDr human colorectal cancer (MTT); type: cell-based; details: 72 h, MTT, read-out: IC50
In short: as §1

[5] = test system: AZ521 human stomach cancer; test: In vitro anti-tumor activity against AZ-521 human stomach cancer (MTT); type: cell-based; details: AZ-521, 72 h, MTT, read-out: IC50
In short: as §1

[6] = test system: murine P388 lymphocytic leukemia cells; test: In vitro anti-tumor activity against murine P388 lymphocytic leukemia cells (MTT, 72 h); type: cell-based; details: Mus musculus; murine P388 cells, 72 h, MTT; read-out: IC50 (50% proliferation inhibitory concentration)
In short: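 MTT assay, 72 h exposure; formazan dissolved in DMSO after centrifugation and supernatant removal. Absorbance read at 570 nm with 690 nm reference. IC50 (μg/ml) by least squares.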

[7] = test system: KB human nasopharynx cancer; test: In vitro anti-tumor activity against KB human nasopharynx cancer (MTT); type: cell-based; details: KB, 72 h, MTT, read-out: IC50
In short: as §1

Acute toxicity = details: mouse, in vivo, mice, 14th day
Procedure: Solutions of test compounds in predetermined concentrations were administered (0.1 ml/10 g body weight) to female BALB/c CrSlc mice (5 to 10 animals per one group, 10 weeks old) respectively, and, thus, LD50 values were calculated from the mortalities of the mice on the 14th day after the administration.

tumor = details: Cancer Research 52, 2818 (1992); cited from earlier work
[8] = NCI criterion, read-out: Evaluation
[9] = days 1 and 5, in solution, read-out: ILS (%) (in solution)
[10] = days 1 and 5, in suspension, read-out: ILS (%) (in suspension)

solubility (Solubility; 0.1 m phosphate buffer, pH 7.2, aqueous buffer): > 234 mg/mL
solubility relative to that of Compound 1-1 and 3 (Solubility): ≥ 10 times
solubility (Solubility; water): > 98.7 mg/mL
Compound: COC1CN(c2ccc3c(=O)c(C(=O)O)cn(-c4nccs4)c3n2)CC1N(C)C(=O)[C@H](C)N (stereo partly drawn) [Compound 1-1-3, 7-[trans-3-(N-L-alanylmethylamino)-4-methoxy-1-pyrrolidinyl]-1,4-dihydro-4-oxo-1-(2-thiazolyl)-1,8-naphthyridine-3-carboxylic acid hydrochloride]

Compound: Cl.NC1CCN(c2ccc3c(=O)c(C(=O)O)cn(-c4nccs4)c3n2)C1 (stereo not drawn) [Compound 3, 7-(3-amino-1-pyrrolidinyl)-1,4-dihydro-4-oxo-1-(2-thiazolyl)-1,8-naphthyridine-3-carboxylic acid hydrochloride]
ILS at 1.56 mg/kg [1, 8]: 20 to 74%
ILS at 3.13 mg/kg [1, 8]: > 75%
ILS at 6.25 mg/kg [1, 8]: > 75%
ILS at 12.5 mg/kg [1, 8]: > 75%
ILS at 25 mg/kg [1, 8]: > 75%
ILS at 1.56 mg/kg [1, 9]: 63%
ILS at 3.13 mg/kg [1, 9]: 75%
ILS at 3.13 mg/kg [1, 10]: 88%
ILS at 6.25 mg/kg [1, 9]: 113%
ILS at 12.5 mg/kg [1, 9]: 188%
ILS at 12.5 mg/kg [1, 10]: 175%
ILS at 25 mg/kg [1, 9]: > 275%
IC50 [2]: 0.364 µg/mL
IC50 (HMV2 human melanoma): 0.21 µg/mL
solubility (Solubility; water): 8.3 mg/mL
inhibition in vivo at 3.13 mg/kg [3]: 77%
IC50 (C33A human cervix cancer): 0.184 µg/mL
IC50 (A427 human lung cancer): 0.0588 µg/mL
IC50 [4]: 1.08 µg/mL
IC50 [5]: 0.181 µg/mL
IC50 [6]: 0.0103 µg/mL
IC50 [7]: 0.153 µg/mL
LD50 at 336 h (Acute toxicity; Intraperitoneal administration (ip)): 55.2 mg/kg
LD50 at 336 h (Acute toxicity; Intravenous administration (iv)): 119 mg/kg

Compound: C[C@H](N)C(=O)NC1CCN(c2ccc3c(=O)c(C(=O)O)cn(-c4nccs4)c3n2)C1.Cl (stereo partly drawn) [Compound 3-1, 7-(3-L-alanylamino-1-pyrrolidinyl)-1,4-dihydro-4-oxo-1-(2-thiazolyl)-1,8-naphthyridine-3-carboxylic acid hydrochloride]
solubility relative to that of Compound 1-1 and 3 (Solubility): ≥ 10 times
solubility (Solubility; water): 79.4 mg/mL

Compound: NCC1CCN(c2c(F)cc3c(=O)c(C(=O)O)cn(C4CC4)c3c2F)C1 (stereo not drawn) [Compound G]
anti-tumor activity, in words (tumor): has anti-tumor activity
